According to patent US5998423A, “Methods for modulating melanin production” (Therasys, Inc., priority 1997, dated 1999):

Legend:
adenylate cyclase = details: through activation of adenylate cyclase, thereby increasing cAMP levels; cited from earlier work
melanoma cell lines = details: cited from earlier work
[1] = test system: Mouse, Cloudman S91 Melanoma Cell line; experiment: Stimulation of melanin synthesis in cell culture (melanin content, OD 475 nm); format: cell-based; details: result in words; incubation 5-7 days at 37° C.; values only in FIG. 6
Text: A Mouse, Cloudman S91 Melanoma Cell line (Clone M-3, ATCC CCL-53.1) was used. The cells were flown as monolayers. These cells multiply 7-8 fold in 7 days and are know to produce melanin in over 50% of the cells up to at least 33 passages. Horse serum, fetal Bovine serum, Penicillin-streptomycin and F-10 nutrient mixture were all obtained from Life Technologies (GIBCO, Grand Island, N.Y.). N^6 -Cyclopentyl-9-methyladenine (N-154) and C-102 (CPT) were obtained from RBI (Natick, Mass.). 1-Oleoyl-2-acetyl-rac-glycerol, activated charcoal, Triton X-100, phenyl methyl sulfonyl fluoride, theophylline, synthetic melanin and L-tyrosine-[Ring-3,5] were all obtained from Sigma Chemical Co. (St. Louis, Mo.). The culture medium used was Ham's F-10. The composition of the medium was as follows: Ham's F-10 Nutrient Mixture (82.5%), horse serum (15.0%), fetal bovine serum (2.5%), penecillin-streptomycin mixture (1.0%).
Cells were incubated with the indicated reagents (see FIG. 6) at 37° C. under 5% CO2 atmosphere for 5-7 days. At the time of harvest, exhausted medium was removed from flasks/wells and cells were treated with 1-5 mL of 0.25% trypsin for 2-3 minutes. […]
The pellet (from above extraction) was dissolved in 0.25 mL of 0.5 N NaOH and the optical density was measured at 475 nm. The melanin content was determined from a standard curve obtained by using a synthetic melanin.

α-MSH
melanin production (adenylate cyclase): increase melanin production

Cn1c(=O)c2[nH]cnc2n(C)c1=O [Theophylline, theophylline]
stimulation of melanogenesis (melanoma cell lines): potent stimulator of melanogenesis

Cn1cnc2c(NC3CCCC3)ncnc21 [N^6 -Cyclopentyl-9-methyladenine]
stimulation of melanin synthesis [1]: stimulation of melanin synthesis
